This is an account of results in patent publication US20250263426A1, “PDE4B INHIBITOR AND USE THEREOF” (Xizang Haisco Pharmaceutical Co., Ltd., priority 2022, published 2025).

By IC50 is commonly meant the concentration needed to halve the response being measured.

Read-outs that look alike come from different tables or passages of the source.

The target in test [1] is PDE4D2 (Homo sapiens (Human), UniProt Q08499). Description: Effect of compounds on PDE4D2 activity (fluorescence polarization kit). It counts as biochemical. The protocol:
FP was usually represented by mP value.
[formula] • I∥ (S520): fluorescence intensity in parallel direction • I⊥ (P520): fluorescence intensity in perpendicular direction • G: G factor=1
[formula] • mP(sample): mP of the test compound in a reaction well • mP(negative control): mP in the negative control well • mP(positive control): mP in the positive control well
According to the calculated inhibition rate at each concentration, the IC50 value of each compound was calculated by GraphPad Prism 8 software.
(In general: Polarisation of emitted light reports the rotation of a fluorescent probe.)

In test [2] the target is PDE4B2 (Homo sapiens (Human), UniProt Q07343). Briefly: Effect of compounds on PDE4B2 activity (fluorescence polarization kit).
For test [3], the system named is human peripheral blood mononuclear cells (TNF-α release). Description: Inhibition of LPS-induced TNF-α release from human peripheral blood mononuclear cells in vitro. In kind it is cell-based. The note with it: 4 h; for IC50: read-out: Re IC50. On the procedure: 5. Detection of Inhibitory Activity of Compounds on the Release of Tumor Necrosis Factor-α (TNF-α) from Human Peripheral Blood Mononuclear Cells Induced by Lipopolysaccharide (LPS) In Vitro
The concentration of hPBMC cells was adjusted to 0.25×10^6 cells/mL with RPMI1640 medium and inoculated into a 96-well plate in an amount of 50000 cells per well. […] Incubation was carried out for 4 h in an incubator at 37° C. and 5% CO2. The cell supernatant was collected, and the content of TNF-α in the supernatant sample was detected by human TNF-α Elisa quantitative test kit (Sino Biological, Cat #KIT10602). The IC50 value was calculated using GraphPad Prism software.

[4] abbreviates: relative IC50, hPBMC, 100 ng/mL LPS.

PDE4B2, sequence (Q07343 other isoform, or with tags, fused parts or gaps): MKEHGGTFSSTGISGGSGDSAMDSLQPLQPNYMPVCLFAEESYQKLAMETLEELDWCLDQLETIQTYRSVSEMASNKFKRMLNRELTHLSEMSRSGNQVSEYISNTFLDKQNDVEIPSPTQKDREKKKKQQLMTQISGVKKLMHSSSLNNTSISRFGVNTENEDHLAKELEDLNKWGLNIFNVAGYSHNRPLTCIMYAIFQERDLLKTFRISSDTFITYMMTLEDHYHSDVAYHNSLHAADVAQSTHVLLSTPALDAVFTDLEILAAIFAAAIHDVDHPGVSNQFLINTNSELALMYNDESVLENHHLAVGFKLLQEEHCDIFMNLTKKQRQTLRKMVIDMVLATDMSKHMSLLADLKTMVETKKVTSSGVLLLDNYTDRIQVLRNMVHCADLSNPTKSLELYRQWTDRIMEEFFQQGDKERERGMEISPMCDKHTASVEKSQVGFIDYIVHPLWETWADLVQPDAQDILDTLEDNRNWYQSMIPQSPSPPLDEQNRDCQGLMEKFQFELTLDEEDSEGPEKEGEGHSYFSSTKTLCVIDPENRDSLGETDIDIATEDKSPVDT
PDE4D2, sequence (Q08499 303-809, change not shown): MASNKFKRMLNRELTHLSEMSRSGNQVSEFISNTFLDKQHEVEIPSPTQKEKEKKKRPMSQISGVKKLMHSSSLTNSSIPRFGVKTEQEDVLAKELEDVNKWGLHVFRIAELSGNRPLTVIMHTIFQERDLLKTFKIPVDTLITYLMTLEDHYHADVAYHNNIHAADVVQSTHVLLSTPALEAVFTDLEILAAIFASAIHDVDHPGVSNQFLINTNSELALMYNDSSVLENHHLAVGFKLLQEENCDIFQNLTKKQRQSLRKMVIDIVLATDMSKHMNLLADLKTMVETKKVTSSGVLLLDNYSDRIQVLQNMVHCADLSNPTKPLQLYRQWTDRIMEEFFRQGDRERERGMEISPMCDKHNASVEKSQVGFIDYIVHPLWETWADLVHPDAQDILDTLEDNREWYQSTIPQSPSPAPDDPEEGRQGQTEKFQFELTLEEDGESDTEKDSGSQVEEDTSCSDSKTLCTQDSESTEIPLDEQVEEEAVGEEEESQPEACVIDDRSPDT

`[O-][S+]1CCc2nc(N3C[C@@H]4CC(c5ccc(Cl)cc5)=C[C@@H]4C3)nc(NC3CN(CCCF)C3)c21` (single isomer, unassigned) [Compound 24-2]: the figures for the half-maximal inhibitory concentration (IC50) in test [1] and in test [2] (read-out: PDE4B2 IC50) were 10 to 50 nM and less than 10 nM, respectively. Turning to `CC#Cc1cnc(C2=CCN(c3nc4c(c(NC(C)(C)COC(N)=O)n3)[S+]([O-])CC4)CC2)nc1` (single isomer, unassigned) [Compound 110-1], the “Max inhibition (%)” value in test [3] (hPBMC, 100 ng/mL LPS) came to 88.09%. Besides, the concentration for half-maximal inhibition (IC50) in test [3] (setting [4]) was less than 10 nM. For `CC#Cc1cnc(C2=CCN(c3nc4c(c(NC(C)(C)COC(N)=O)n3)[S+]([O-])CC4)CC2)nc1` (single isomer, unassigned) [Compound 110-2] the same measures were 74.07% and less than 10 nM. Consider `[O-][S@@+]1CCCc2nc(N3CCN(c4ncc(Cl)cn4)CC3)nc(NC3(CO)CCC3)c21` [Compound 12-2], for which the IC50 in test [1] was 10 to 50 nM; in test [2] (read-out: PDE4B2 IC50), less than 10 nM. For `[O-][S@@+]1CCCc2nc(N3C[C@H]4CN(c5ccc6c(c5)CC6)C[C@H]4C3)nc(NC3(CO)CCC3)c21` [Compound 13-2] the same measures were 10 to 50 nM and less than 10 nM. For the molecule `[O-][S@@+]1CCCc2nc(N3C[C@H]4CN(c5ncc(Cl)cn5)C[C@H]4C3)nc(NC3(CO)CCC3)c21` [Compound 14-1], the IC50 in test [1] and in test [2] (read-out: PDE4B2 IC50) was 10 to 50 nM throughout. In the case of `[O-][S@+]1CCCc2nc(N3C[C@H]4CN(c5ccc(Cl)cc5)C[C@H]4C3)nc(NC3(CO)CCC3)c21` [Compound 15-2], the values for the IC50 in test [1] and in test [2] (read-out: PDE4B2 IC50) were 10 to 50 nM and less than 10 nM, respectively. The matching figures for `[O-][S@@+]1CCCc2nc(N3CCC=C(c4ccc(Cl)cc4)CC3)nc(NC3(CO)CCC3)c21` [Compound 16-2]: 10 to 50 nM and 10 to 50 nM. In the case of `[O-][S@@+]1CCCc2nc(N3CCC=C(c4ncc(Cl)cn4)CC3)nc(NC3(CO)CCC3)c21` [Compound 17-2], the IC50 is 10 to 50 nM in test [1] and less than 10 nM in test [2] (read-out: PDE4B2 IC50). For `O=C1CCCc2nc(N3CC4=C(CN(c5ncc(Cl)cn5)C4)C3)nc(NC3(CO)CCC3)c21` [Compound 19-1] the same measures were 10 to 50 nM and less than 10 nM.

For the molecule `[O-][S@+]1CCc2nc(N3CC=C(c4ncc(Cl)cn4)CC3)nc(NC3(CO)CCCC3)c21` [Compound 30], the IC50 in test [1] and in test [2] was less than 10 nM each time. Turning to `CC(C)(CO)Nc1nc(N2CC=C(c3ncc(Cl)cn3)CC2)nc2c1[S+]([O-])CC2` (stereo not drawn) [Compound 31], the IC50 in test [1] and in test [2] was 10 to 50 nM throughout. For `C#Cc1cnc(C2=CCN(c3nc4c(c(NC5(c6ncc[nH]6)CCC5)n3)[S@+]([O-])CC4)CC2)nc1` [Compound 37], in test [3] (Homo sapiens, PBMC), the IC50 is 10 to 50 nM. Further, the Emax in test [3] (Homo sapiens, PBMC, hPBMC, 100 ng/mL LPS, read-out: Max inhibition (%)) was determined as 78.3%. With `NC(=O)OCC1(Nc2nc(N3CC=C(c4ncc(C5CC5)cn4)CC3)nc3c2[S@+]([O-])CC3)CCC1` [Compound 47], the “Max inhibition (%)” value in test [3] (hPBMC, 100 ng/mL LPS) was determined as 80.45%. For the same molecule, the IC50 in test [3] (setting [4]) and in test [1] was less than 10 nM throughout. The molecule `O=S1(=O)CCCc2nc(N3CC=C(c4ncc(Cl)cn4)CC3)nc(NC3(CO)CCC3)c21` [Compound 54] displayed an IC50 in test [2] of 50 to 100 nM.

As to `NC(=O)OCC1(Nc2nc(N3CCC(c4ncc(Cl)cn4)CC3)nc3c2[S@+]([O-])CC3)CCC1` [Compound 55], the IC50 in test [2] was in the range of 50 to 100 nM.

With `CC#Cc1cnc(C2=CCN(c3nc4c(c(NC5(COC(F)F)CCC5)n3)[S@+]([O-])CC4)CC2)nc1` [Compound 92-1], in test [3] (hPBMC, 100 ng/mL LPS), the “Max inhibition (%)” value is listed as 69.72%. The IC50 in test [3] (setting [4]) and in test [1] was less than 10 nM throughout. Consider `CC#Cc1cnc(C2=CCN(c3nc4c(c(NC5(COC(F)F)CCC5)n3)[S@@+]([O-])CC4)CC2)nc1` [Compound 92-2], for which, in test [1], the IC50 fell in the range of 10 to 50 nM. Take `CC(C)(COC(N)=O)Nc1nc(N2CCC=C(c3ncc(Cl)cn3)CC2)nc2c1[S@+]([O-])CC2` [Compound 102-1]: the “Max inhibition (%)” value in test [3] (hPBMC, 100 ng/mL LPS) came to 99.73%. Also, in test [3] (setting [4]), the IC50 is 10 to 50 nM. The matching figures for `CC(C)(COC(N)=O)Nc1nc(N2CCC=C(c3ncc(Cl)cn3)CC2)nc2c1[S@@+]([O-])CC2` [Compound 102-2]: 87.54% and less than 10 nM.
